In EP4772510A2, “BENZAZEPINONE COMPOUND AND USE THEREOF” (HANGZHOU BIO-SINCERITY PHARMA-TECHCO., LTD., priority 2023, dated 2025):

Target: T1, hERG ion channel (Homo sapiens, UniProt Q12809)
T1 construct: expressed in transfected cells
Experiment: Inhibition of hERG ion channel (whole-cell patch clamp, HEK293 cells)
Type: cell-based
Settings: compound 10 µM, room temperature
Experimental: Example 58: Inhibition of hERG Ion Channel by Compounds
The hERG ion channel was stably expressed in HEK293 cells.
The test sample was dissolved in dimethyl sulfoxide (DMSO) to prepare a 9 mM stock solution, which was stored in a -20 °C freezer. On the testing day, the stock solution was further dissolved in the extracellular fluid to achieve the required concentrations. The concentration for electrophysiological test was 10 µM.
The extracellular fluid (mM) was: sodium chloride, 137; potassium chloride, 4; calcium chloride, 1.8; magnesium chloride, 1; HEPES, 10; glucose, 10. The pH was adjusted to 7.34 with sodium hydroxide. The extracellular fluid was stored at 2-8 °C.
The intracellular fluid (mM) was: potassium aspartate, 130; magnesium chloride, 5; ethylene glycol tetraacetic acid (EGTA), 5; N-2-hydroxyethylpiperazine-N'-2-ethanesulfonic acid (HEPES), 10. […]
For administration of the test samples, perfusion was carried out using a perfusion system utilizing the gravity of one's own. […] The mean of the peak current amplitudes recorded for the last three times during the initial recording served as the current peak of the negative control. After the initial current was stable, the test samples were administered starting from a low concentration until three recorded peak currents were again stable or the peak currents were "constant" after and before continuous administration for 5 min. […]

T1 sequence (Q12809 whole entry): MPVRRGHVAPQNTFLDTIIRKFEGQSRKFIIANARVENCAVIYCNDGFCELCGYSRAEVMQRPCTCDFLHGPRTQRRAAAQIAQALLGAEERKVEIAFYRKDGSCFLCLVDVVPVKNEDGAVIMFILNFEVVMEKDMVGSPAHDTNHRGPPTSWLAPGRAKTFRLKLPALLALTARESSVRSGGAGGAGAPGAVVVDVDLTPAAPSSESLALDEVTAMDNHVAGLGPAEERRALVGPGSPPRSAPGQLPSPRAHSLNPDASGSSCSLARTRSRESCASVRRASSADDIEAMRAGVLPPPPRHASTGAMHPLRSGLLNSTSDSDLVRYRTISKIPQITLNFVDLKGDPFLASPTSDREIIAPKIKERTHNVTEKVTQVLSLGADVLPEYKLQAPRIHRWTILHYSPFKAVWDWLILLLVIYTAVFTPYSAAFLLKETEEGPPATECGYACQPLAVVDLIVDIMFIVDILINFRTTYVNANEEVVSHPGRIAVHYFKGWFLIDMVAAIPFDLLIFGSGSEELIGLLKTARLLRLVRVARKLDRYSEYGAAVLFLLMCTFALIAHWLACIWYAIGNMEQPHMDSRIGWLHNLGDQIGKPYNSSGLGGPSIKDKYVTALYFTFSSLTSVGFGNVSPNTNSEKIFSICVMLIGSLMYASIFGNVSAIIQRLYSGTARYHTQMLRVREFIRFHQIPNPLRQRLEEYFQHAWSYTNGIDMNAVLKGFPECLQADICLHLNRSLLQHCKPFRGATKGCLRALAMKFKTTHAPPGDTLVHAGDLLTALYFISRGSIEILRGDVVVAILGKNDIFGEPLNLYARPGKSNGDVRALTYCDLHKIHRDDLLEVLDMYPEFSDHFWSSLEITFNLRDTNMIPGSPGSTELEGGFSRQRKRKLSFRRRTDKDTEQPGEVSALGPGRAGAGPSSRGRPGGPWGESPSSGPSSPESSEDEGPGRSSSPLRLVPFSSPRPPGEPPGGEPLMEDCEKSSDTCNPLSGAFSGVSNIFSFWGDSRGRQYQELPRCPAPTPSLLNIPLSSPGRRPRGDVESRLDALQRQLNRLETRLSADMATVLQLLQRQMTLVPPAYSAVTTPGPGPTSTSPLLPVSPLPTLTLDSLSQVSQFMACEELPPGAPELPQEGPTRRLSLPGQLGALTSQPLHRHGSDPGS

Compound | Percentage blocking rate of hERG channel
O=C(NC1CCc2cc(C#Cc3cnn(C(F)F)c3)cc3c2N(CC3)C1=O)c1ncn(Cc2c(F)cccc2F)n1 (centres unmarked) [III-17, 1-(2,6-difluorobenzyl)-N-(9-((1-(difluoromethyl)-1H-pyrazol-4-yl)ethynyl)-4-oxo-1,2,3,4,6,7-hexahydroazepino[3,2,1-hi]indol-3-yl)-1H-1,2,4-triazole-3-carboxamide] | 38.89%
N-(9-((1-(difluoromethyl)-1H-pyrazol-4-yl)ethynyl)-4-oxo-1,2,3,4,6,7-hexahydroazepino[3,2,1-hi]indol-3-yl)-1-(4-methylbenzyl)-1H-1,2,4-triazole-3-carboxamide [III-25] | 39.58%
